Laboratory results as given in patent US8580965B2, “Substituted sulfonamide compounds” (Gruenenthal GmbH, priority 2006, dated 2013).

Columns and labels:
[1] = target: T1, human B1R receptor (bradykinin 1 receptor) (Homo sapiens, UniProt P46663); test: FLIPR Ca2+ assay (Fluo-4) on CHO K1 cells stably transfected with the human B1R gene; % activation and % inhibition at 10 μM; format: cell-based; details: CHO K1 hB1R cells, Ca2+ inflow after 0.5 nM Lys-Des-Arg9-bradykinin; for inhibition at 10 µM: CHO-K1, test substance 10 μM, read-out: B1R antagonism, human [10 μM] % inhibition
T1 construct: host or cells: CHO K1 cells (hB1R cells)
T1 sequence (P46663 1-353): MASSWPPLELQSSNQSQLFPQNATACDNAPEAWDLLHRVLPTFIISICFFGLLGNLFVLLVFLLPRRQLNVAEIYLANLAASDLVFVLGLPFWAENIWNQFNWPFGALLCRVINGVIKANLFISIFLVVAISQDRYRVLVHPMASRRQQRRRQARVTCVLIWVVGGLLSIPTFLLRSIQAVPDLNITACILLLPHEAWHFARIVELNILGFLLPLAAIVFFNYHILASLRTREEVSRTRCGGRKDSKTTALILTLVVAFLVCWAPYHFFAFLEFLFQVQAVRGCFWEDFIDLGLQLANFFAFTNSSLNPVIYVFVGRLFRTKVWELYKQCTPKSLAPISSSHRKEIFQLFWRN
Procedure, shortened: (§1)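 CHO K1 cells stably expressing human or rat B1R, Fluo-4 loaded, read by FLIPR (peak fluorescence). Compound at 10 µM first gives % activation versus agonist; after 10 min, agonist (human: 0.5 nM Lys-Des-Arg9-bradykinin; rat: 100 nM Des-Arg9-bradykinin) gives % inhibition relative to maximal inhibition.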

[2] = target: T2, B1R receptor of the rat (bradykinin 1 receptor) (Rattus norvegicus, UniProt P97583); test: FLIPR Ca2+ assay (Fluo-4) on CHO K1 cells stably transfected with the B1R gene of the rat; % activation and % inhibition at 10 μM; format: cell-based; details: CHO K1 rB1R cells, Ca2+ inflow after 100 nM Des-Arg9-bradykinin; for inhibition at 10 µM: CHO-K1, test substance 10 μM, read-out: B1R antagonism, rat [10 μM] % inhibition
T2 construct: host or cells: CHO K1 cells (rB1R cells)
T2 sequence (P97583 1-337): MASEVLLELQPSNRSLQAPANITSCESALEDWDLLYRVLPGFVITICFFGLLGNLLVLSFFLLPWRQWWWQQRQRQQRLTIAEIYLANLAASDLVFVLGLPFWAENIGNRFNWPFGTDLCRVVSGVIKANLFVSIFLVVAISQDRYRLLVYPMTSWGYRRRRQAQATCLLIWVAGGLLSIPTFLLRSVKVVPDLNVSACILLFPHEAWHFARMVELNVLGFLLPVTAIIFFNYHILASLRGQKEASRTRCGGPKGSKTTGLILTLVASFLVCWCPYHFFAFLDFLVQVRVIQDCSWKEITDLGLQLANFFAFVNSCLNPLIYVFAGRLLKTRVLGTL
Procedure, shortened: as §1

| SMILES | inhibition at 10 µM [1] | inhibition at 10 µM [2] | B1R antagonism, human [10 μM] % inhibition ([1]; test substance 10 μM) | B1R antagonism, rat [10 μM] % inhibition ([2]; test substance 10 μM) |
| --- | --- | --- | --- | --- |
| COc1cc(C)c(S(=O)(=O)N(CCOCC(=O)N2CCC(O)(c3ccc(Br)cc3)CC2)CC(C)C)c(C)c1C [Example 210, N-(2-(2-(4-(4-bromophenyl)-4-hydroxypiperidin-1-yl)-2-oxoethoxy)ethyl)-N-isobutyl-4-methoxy-2,3,6-trimethylphenylsulfonamide] | 105% | 101% |  |  |
| COc1cc(C)c(S(=O)(=O)N(CCOCC(=O)N2CCC(O)(Cc3ccccc3)CC2)CC(C)C)c(C)c1C [Example 211, N-(2-(2-(4-benzyl-4-hydroxypiperidin-1-yl)-2-oxoethoxy)ethyl)-N-isobutyl-4-methoxy-2,3,6-trimethylphenylsulfonamide] | 99.6% | 100% |  |  |
| COc1cc(C)c(S(=O)(=O)N(CCOCC(=O)N2CCC(O)(c3cccc(C(F)(F)F)c3)CC2)CC(C)C)c(C)c1C [Example 212, N-(2-(2-(4-hydroxy-4-(3-(trifluoromethyl)phenyl)piperidin-1-yl)-2-oxoethoxy)ethyl)-N-isobutyl-4-methoxy-2,3,6-trimethylphenylsulfonamide] | 105% | 100% |  |  |
| COc1cc(C)c(S(=O)(=O)N2CCCC2COCC(=O)N2CCC(O)(c3ccc(Cl)c(C(F)(F)F)c3)CC2)c(C)c1 (centres unmarked) [Example 213, 1-(4-(4-chloro-3-(trifluormethyl)phenyl)-4-hydroxypiperidin-1-yl)-2-((1-(4-methoxy-2,6-dimethylphenylsulfonyl)pyrrolidin-2-yl)methoxy)ethanone] |  |  | 103.55% | 101.25% |
| COc1cc(C)c(S(=O)(=O)N2CCCC2COCC(=O)N2CCC(O)(c3ccc(Br)cc3)CC2)c(C)c1 (centres unmarked) [Example 214, 1-(4-(4-bromophenyl)-4-hydroxypiperidin-1-yl)-2-((1-(4-methoxy-2,6-dimethylphenylsulfonyl)pyrrolidin-2-yl)methoxy)ethanone] | 97.9% | 101% |  |  |
| COc1cc(C)c(S(=O)(=O)N2CCCC2COCC(=O)N2CCC(O)(c3ccccc3)CC2)c(C)c1 (centres unmarked) [Example 215, 1-(4-hydroxy-4-phenylpiperidin-1-yl)-2-((1-(4-methoxy-2,6-dimethylphenylsulfonyl)pyrrolidin-2-yl)methoxy)ethanone] | 104% | 102% |  |  |
| COc1cc(C)c(S(=O)(=O)N2CCCC2COCC(=O)N2CCC(O)(Cc3ccccc3)CC2)c(C)c1 (centres unmarked) [Example 216, 1-(4-benzyl-4-hydroxypiperidin-1-yl)-2-((1-(4-methoxy-2,6-dimethylphenylsulfonyl)pyrrolidin-2-yl)methoxy)ethanone] | 102% | 100% |  |  |
| COc1cc(C)c(S(=O)(=O)N2CCCC2COCC(=O)N2CCC(O)(c3cccc(C(F)(F)F)c3)CC2)c(C)c1 (centres unmarked) [Example 217, 1-(4-hydroxy-4-(3-(trifluoromethyl)phenyl)piperidin-1-yl)-2-((1-(4-methoxy-2,6-dimethylphenylsulfonyl)pyrrolidin-2-yl)methoxy)ethanone] | 105% | 99.9% |  |  |
| O=C(COCC1CCCN1S(=O)(=O)c1c(Cl)cccc1Cl)N1CCC(O)(c2ccc(Cl)c(C(F)(F)F)c2)CC1 (centres unmarked) [Example 218, 1-(4-(4-chloro-3-(trifluoromethyl)phenyl)-4-hydroxypiperidin-1-yl)-2-((1-(2,6-dichlorophenylsulfonyl)pyrrolidin-2-yl)methoxy)ethanone] | 103% | 102% |  |  |
| O=C(COCC1CCCN1S(=O)(=O)c1c(Cl)cccc1Cl)N1CCC(O)(c2ccc(Br)cc2)CC1 (centres unmarked) [Example 219, 1-(4-(4-bromophenyl)-4-hydroxypiperidin-1-yl)-2-((1-(2,6-dichlorophenylsulfonyl)pyrrolidin-2-yl)methoxy)ethanone] | 102% | 101% |  |  |
| O=C(COCC1CCCN1S(=O)(=O)c1c(Cl)cccc1Cl)N1CCC(O)(c2ccccc2)CC1 (centres unmarked) [Example 220, 2-((1-(2,6-dichlorophenylsulfonyl)pyrrolidin-2-yl)methoxy)-1-(4-hydroxy-4-phenylpiperidin-1-yl)ethanone] | 99% | 102% |  |  |
| O=C(COCC1CCCN1S(=O)(=O)c1c(Cl)cccc1Cl)N1CCC(O)(Cc2ccccc2)CC1 (centres unmarked) [Example 221, 1-(4-benzyl-4-hydroxypiperidin-1-yl)-2-((1-(2,6-dichlorophenylsulfonyl)pyrrolidin-2-yl)methoxy)ethanone] | 23.5% | 89.5% |  |  |
| O=C(COCC1CCCN1S(=O)(=O)c1c(Cl)cccc1Cl)N1CCC(O)(c2cccc(C(F)(F)F)c2)CC1 (centres unmarked) [Example 222, 2-((1-(2,6-dichlorophenylsulfonyl)pyrrolidin-2-yl)methoxy)-1-(4-hydroxy-4-(3-(trifluoromethyl)phenyl)piperidin-1-yl)ethanone] | 102% | 103% |  |  |
| O=C(COCC1CCCN1S(=O)(=O)c1cc(Cl)sc1Cl)N1CCC(O)(c2ccc(Cl)c(C(F)(F)F)c2)CC1 (centres unmarked) [Example 223, 1-(4-(4-chloro-3-(trifluoromethyl)phenyl)-4-hydroxypiperidin-1-yl)-2-((1-(2,5-dichlorothiophen-3-ylsulfonyl)pyrrolidin-2-yl)methoxy)ethanone] | 15.1% | 99.5% |  |  |
| O=C(COCC1CCCN1S(=O)(=O)c1cc(Cl)sc1Cl)N1CCC(O)(c2ccc(Br)cc2)CC1 (centres unmarked) [Example 224, 1-(4-(4-bromophenyl)-4-hydroxypiperidin-1-yl)-2-((1-(2,5-dichlorothiophen-3-ylsulfonyl)pyrrolidin-2-yl)methoxy)ethanone] | 49.1% | 102% |  |  |
| O=C(COCC1CCCN1S(=O)(=O)c1cc(Cl)sc1Cl)N1CCC(O)(c2ccccc2)CC1 (centres unmarked) [Example 225, 2-((1-(2,5-dichlorothiophen-3-ylsulfonyl)pyrrolidin-2-yl)methoxy)-1-(4-hydroxy-4-phenylpiperidin-1-yl)ethanone] | 43.1% | 88.5% |  |  |
| O=C(COCC1CCCN1S(=O)(=O)c1cc(Cl)sc1Cl)N1CCC(O)(Cc2ccccc2)CC1 (centres unmarked) [Example 226, 1-(4-benzyl-4-hydroxypiperidin-1-yl)-2-((1-(2,5-dichlorothiophen-3-ylsulfonyl)pyrrolidin-2-yl)methoxy)ethanone] | 13% | 72.4% |  |  |
| O=C(COCC1CCCN1S(=O)(=O)c1cc(Cl)sc1Cl)N1CCC(O)(c2cccc(C(F)(F)F)c2)CC1 (centres unmarked) [Example 227, 2-((1-(2,5-dichlorothiophen-3-ylsulfonyl)pyrrolidin-2-yl)methoxy)-1-(4-hydroxy-4-(3-(trifluoromethyl)phenyl)piperidin-1-yl)ethanone] | 7.61% | 80.9% |  |  |
| COc1cc(C)c(S(=O)(=O)N2CCC(COCC(=O)N3CCC(O)(c4ccc(Cl)c(C(F)(F)F)c4)CC3)C2)c(C)c1 (centres unmarked) [Example 228, 1-(4-(4-chloro-3-(trifluoromethyl)phenyl)-4-hydroxypiperidin-1-yl)-2-((1-(4-methoxy-2,6-dimethylphenylsulfonyl)pyrrolidin-3-yl)methoxy)ethanone] | 95% | 101% |  |  |
| O=C(COCC1CCCCN1S(=O)(=O)c1cc(Cl)sc1Cl)N1CCC(O)(c2cccnc2)CC1 (centres unmarked) [Example 229, 2-((1-(2,5-dichlorothiophen-3-ylsulfonyl)piperidin-2-yl)methoxy)-1-(4-hydroxy-4-(pyridin-3-yl)piperidin-1-yl)ethanone] | 65.5% | 100% |  |  |
| COc1cc(C)c(S(=O)(=O)N2CCC(COCC(=O)N3CCC(O)(c4ccc(Br)cc4)CC3)C2)c(C)c1 (centres unmarked) [Example 230, 1-(4-(4-bromophenyl)-4-hydroxypiperidin-1-yl)-2-((1-(4-methoxy-2,6-dimethylphenylsulfonyl)pyrrolidin-3-yl)methoxy)ethanone] | 100% | 100% |  |  |
| COc1cc(C)c(S(=O)(=O)N2CCC(COCC(=O)N3CCC(O)(c4cccc(C(F)(F)F)c4)CC3)C2)c(C)c1 (centres unmarked) [Example 231, 1-(4-hydroxy-4-(3-(trifluoromethyl)phenyl)piperidin-1-yl)-2-((1-(4-methoxy-2,6-dimethylphenylsulfonyl)pyrrolidin-3-yl)methoxy)ethanone] | 102% | 98.7% |  |  |
